For test [1], the system named is AMO-1 multiple myeloma xenograft. In words: Quantification of the cleaved form of PARP in vivo, per os (Example C). The conditions noted are these: single dose per os, tumors recovered 16 hours after dosing. The arrangement: species or system SCID mice. How it is done: The ability of the compounds of the invention to induce apoptosis was evaluated in vivo using the AMO-1 multiple myeloma xenograft.
1×10^7 cells were subcutaneously grafted into immunosuppressed SCID mice. 12-14 days later, when tumors had reached the appropriate volume, mice (3 per group) were treated once with the various compounds (per os, HEC 1%/Tween 80 99:1). Tumor samples were recovered 16 hours after dosing and lysed. Cleared lysates were used for cleaved PARP quantification (as a marker of apoptosis induction) using the Meso Scale Discovery (MSD) Elisa platform test. Results are expressed as the ratio between cleaved PARP in treated mice over control mice.

Test [2] has as its target Cy5-labelled Mcl1 (amino acids 171-321) C286S protein (UniProtKB Q07820) (Homo sapiens (Human), UniProt Q07820, C286S). Description: Inhibition of Mcl-1 by the fluorescence quenching assay (Example A, Method B). Type of test: binding. In a few lines: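 Eleven-point compound series incubated 2 h at room temperature with 1 nM Cy5-tagged protein and quencher-labelled PUMA peptide at 10, 20 or 400 nM in HEPES/NaCl/Tween 20, pH 7.4, 5% DMSO. IC50 for 50% fluorescence increase by 4-parameter fit, then Ki derived (complete cKi or estimated eKi).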

Test [3] relates to NCI-H929 cell lines. In words: In vitro cytotoxicity, CellTiter-Glo (CTG) assay (Example B, Method B). In kind it is cell-based. The conditions noted are these: Homo sapiens, NCI-H929, 48 h, NCI-H929 cells, 48 h incubation, read-out: C50. A digest of the protocol: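 ATP-based luminescence (CellTiter-Glo) after 48 h incubation at 37° C., 5% CO2 gave NCI-H929 viability. Eleven concentrations tested, highest final 30 μM, dispensed acoustically from 10 mM DMSO stocks; C50 defined as concentration reaching 50% viability.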

We go through 14 compounds from patent US20240150293A1, “SPIROCYCLOHEXANE DERIVATIVES, PHARMACEUTICAL COMPOSITIONS CONTAINING THEM AND THEIR USES AS ANTI-APOPTOTIC INHIBITORS” (LES LABORATOIRES SERVIER, priority 2021, published 2024).

Like-named read-outs stand apart in the source and are kept apart here.

Cy5-labelled Mcl1 (amino acids 171-321) C286S protein, sequence (Q07820 171-321 C286S): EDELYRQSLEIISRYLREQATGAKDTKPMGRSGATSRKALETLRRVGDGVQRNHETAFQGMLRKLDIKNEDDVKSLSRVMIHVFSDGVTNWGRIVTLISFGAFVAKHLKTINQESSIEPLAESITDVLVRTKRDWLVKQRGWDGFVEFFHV

For `C[C@@H](COc1ccnc2c1[C@H](C)CCC2)C[C@H]1Cc2cc(F)ccc2[C@]12CC[C@@](Nc1cccc(Cl)c1)(C(=O)O)CC2` [Example 768, (1r,2′S,4S)-4-(3-chloroanilino)-5′-fluoro-2′-[(2R)-2-methyl-3-{[(5R)-5-methyl-5,6,7,8-tetrahydroquinolin-4-yl]oxy}propyl]-2′,3′-dihydrospiro[cyclohexane-1,1′-indene]-4-carboxylic acid], the “Cleaved PARP (fold to control)” value in test [1] (30 mpk) is recorded as 0.8 fold to control; in test [1] (60 mpk), 15.4 fold to control; in test [1] (120 mpk) it was 30.3 fold to control. In test [2], the Ki was 0.109 nM. For the same compound, the IC50 in test [3] was 49.6 nM.
On to `Cc1c(Cl)cccc1N[C@]1(C(=O)O)CC[C@]2(CC1)c1ccccc1C[C@@H]2C[C@@H](C)COc1ccnc2c1[C@H](C)CCC2` [Example 708, (1r,2′S,4S)-4-(3-chloro-2-methylanilino)-2′-[(2R)-2-methyl-3-{[(5R)-5-methyl-5,6,7,8-tetrahydroquinolin-4-yl]oxy}propyl]-2′,3′-dihydrospiro[cyclohexane-1,1′-indene]-4-carboxylic acid], for which the “Cleaved PARP (fold to control)” value in test [1] (120 mpk) was 12.6 fold to control. Also, in test [2], the inhibitory constant (Ki) was 0.362 nM. Moreover, the IC50 in test [3] worked out at 107 nM.
On to `C[C@@H](COc1ccnc2c1[C@H](C)CCC2)CN1Cc2cc3c(cc2[C@]12CC[C@@](Nc1cccc(Cl)c1)(C(=O)O)CC2)OCO3` [Example 44, (1s,4S)-4-(3-chloroanilino)-6′-[(2R)-2-methyl-3-{[(5R)-5-methyl-5,6,7,8-tetrahydroquinolin-4-yl]oxy}propyl]-6′,7′-dihydro-2′H-spiro[cyclohexane-1,5′-[1,3]dioxolo[4,5-f]isoindole]-4-carboxylic acid], for which the entries for the “Cleaved PARP (fold to control)” value in test [1] (30 mpk), in test [1] (60 mpk) and in test [1] (120 mpk) were 0.7 fold to control, 0.7 fold to control and 1.4 fold to control, respectively. Further, in test [2] (Ki determined from IC50), the Ki was found to be 0.126 nM. Moreover, in test [3], the IC50 is 53.4 nM.
In the case of `COC(C)(C)c1ccc2c(c1)[C@]1(CC[C@@](Nc3cccc(Cl)c3)(C(=O)O)CC1)[C@@H](C[C@@H](C)COc1ccnc3c1[C@H](C)CCC3)C2` [Example 866, (1r,2′S,4S)-4-(3-chloroanilino)-6′-(2-methoxypropan-2-yl)-2′-[(2R)-2-methyl-3-{[(5R)-5-methyl-5,6,7,8-tetrahydroquinolin-4-yl]oxy}propyl]-2′,3′-dihydrospiro[cyclohexane-1,1′-indene]-4-carboxylic acid], the “Cleaved PARP (fold to control)” value is 1.2 fold to control in test [1] (30 mpk), 6.5 fold to control in test [1] (60 mpk) and 6.3 fold to control in test [1] (120 mpk). In test [2], the inhibition constant (Ki) was found to be 0.0213 nM.
On to `C[C@@H](COc1ccnc2c1[C@H](C)CCC2)C[C@H]1Cc2ccccc2[C@]12CC[C@@](Oc1cccc(Cl)c1)(C(=O)O)CC2` [Example 717, (1r,2′S,4S)-4-(3-chlorophenoxy)-2′-[(2R)-2-methyl-3-{[(5R)-5-methyl-5,6,7,8-tetrahydroquinolin-4-yl]oxy}propyl]-2′,3′-dihydrospiro[cyclohexane-1,1′-indene]-4-carboxylic acid], for which the Ki in test [2] was found to be 2.28 nM. The IC50 in test [3] was found to be 367 nM.
As to `C[C@@H](COc1ccnc2c1[C@H](C)CCC2)CN1Cc2cc(Cl)ccc2[C@]12CC[C@@](Nc1cccc(Cl)c1)(C(=O)O)CC2` [Example 56, (1s,4S)-5′-chloro-4-(3-chloroanilino)-2′-[(2R)-2-methyl-3-{[(5R)-5-methyl-5,6,7,8-tetrahydroquinolin-4-yl]oxy}propyl]-2′,3′-dihydrospiro[cyclohexane-1,1′-isoindole]-4-carboxylic acid], in test [2] (Ki determined from IC50), the Ki amounted to 0.762 nM. Further, the IC50 in test [3] came out at 151 nM.
In the case of `Cc1c(Cl)cccc1N[C@]1(C(=O)O)CC[C@@]2(CC1)c1cc3c(cc1CN2C[C@@H](C)COc1ccnc2c1[C@H](C)CCC2)OCO3` [Example 50, (1r,4R)-4-(3-chloro-2-methylanilino)-6′-[(2R)-2-methyl-3-{[(5R)-5-methyl-5,6,7,8-tetrahydroquinolin-4-yl]oxy}propyl]-6′,7′-dihydro-2′H-spiro[cyclohexane-1,5′-[1,3]dioxolo[4,5-f]isoindole]-4-carboxylic acid], in test [2] (Ki determined from IC50), the inhibition constant Ki turned out to be 72 nM. For the same compound, in test [3], the IC50 was determined as 13500 nM.
Consider `CC[C@H]1COc2cc3c(cc2O1)[C@]1(CC[C@@](Nc2cccc(Cl)c2)(C(=O)O)CC1)[C@@H](C[C@@H](C)COc1ccnc2c1[C@H](C)CCC2)C3` [Example 977, (1r,3'S,4S,7′S)-4-(3-chloroanilino)-3′-ethyl-7′-[(2R)-2-methyl-3-{[(5R)-5-methyl-5,6,7,8-tetrahydroquinolin-4-yl]oxy}propyl]-2′,3′,7′,8′-tetrahydrospiro[cyclohexane-1,6′-indeno[5,6-b][1,4]dioxine]-4-carboxylic acid], for which the Ki in test [2] was determined as 0.0231 nM. The IC50 in test [3] is 56 nM.
`COCc1cc2c(cc1F)CN(C[C@@H](C)COc1ccnc3c1[C@H](C)CCC3)[C@]21CC[C@](Nc2cccc(Cl)c2)(C(=O)O)CC1` [Example 51, (1s,4S)-4-(3-chloroanilino)-5′-fluoro-6′-(methoxymethyl)-2′-[(2R)-2-methyl-3-{[(5R)-5-methyl-5,6,7,8-tetrahydroquinolin-4-yl]oxy}propyl]-2′,3′-dihydrospiro[cyclohexane-1,1′-isoindole]-4-carboxylic acid]: the Ki in test [2] (Ki determined from IC50) was found to be 0.0762 nM. Moreover, in test [3], the IC50 is 37.7 nM.
For `C[C@@H](COc1ccnc2c1[C@H](C)CCC2)C[C@H]1Cc2cc3c(cc2[C@]12CC[C@@](Nc1ccc(Cl)c(Cl)c1)(C(=O)O)CC2)OCO3` [Example 887, (1r,4S,6′S)-4-(3,4-dichloroanilino)-6′-[(2R)-2-methyl-3-{[(5R)-5-methyl-5,6,7,8-tetrahydroquinolin-4-yl]oxy}propyl]-6′,7′-dihydro-2′H-spiro[cyclohexane-1,5′-indeno[5,6-d][1,3]dioxole]-4-carboxylic acid], the Ki in test [2] turned out to be 0.293 nM. Also, in test [3], the IC50 was determined as 151 nM.
On the same counts, the results for `[2H]c1c([2H])c(Cl)c([2H])c(N[C@]2(C(=O)O)CC[C@]3(CC2)c2cc4c(cc2C[C@@H]3C[C@@H](C)COc2ccnc3c2[C@H](C)CCC3)OCO4)c1[2H]` [Example 844, (1r,4S,6′S)-4-{[3-chloro(2H4)phenyl]amino}-6′-[(2R)-2-methyl-3-{[(5R)-5-methyl-5,6,7,8-tetrahydroquinolin-4-yl]oxy}propyl]-6′,7′-dihydro-2′H-spiro[cyclohexane-1,5′-indeno[5,6-d][1,3]dioxole]-4-carboxylic acid] are 0.0106 nM and 29.2 nM.
On the same counts, the results for `CCOc1cc2c(cc1F)C[C@H](C[C@@H](C)COc1ccnc3c1[C@H](C)CCC3)[C@]21CC[C@](Nc2cccc(Cl)c2)(C(=O)O)CC1` [Example 818, (1r,2′S,4S)-4-(3-chloroanilino)-6′-ethoxy-5′-fluoro-2′-[(2R)-2-methyl-3-{[(5R)-5-methyl-5,6,7,8-tetrahydroquinolin-4-yl]oxy}propyl]-2′,3′-dihydrospiro[cyclohexane-1,1′-indene]-4-carboxylic acid] are 0.0783 nM and 106 nM.
For the compound `Cc1ccc2c(c1)CN(C[C@@H](C)COc1ccnc3c1[C@H](C)CCC3)[C@]21CC[C@](Nc2cccc(Cl)c2)(C(=O)O)CC1` [Example 55, (1s,4S)-4-(3-chloroanilino)-5′-methyl-2′-[(2R)-2-methyl-3-{[(5R)-5-methyl-5,6,7,8-tetrahydroquinolin-4-yl]oxy}propyl]-2′,3′-dihydrospiro[cyclohexane-1,1′-isoindole]-4-carboxylic acid], the Ki in test [2] (Ki determined from IC50) came out at 0.104 nM. Moreover, the IC50 in test [3] was 181 nM.
In the case of `C[C@@H](COc1ccnc2c1[C@H](C)CCC2)C[C@H]1Cc2ccc(-c3cccn3C)cc2[C@]12CC[C@@](Nc1cccc(Cl)c1)(C(=O)O)CC2` [Example 881, (1r,2′S,4S)-4-(3-chloroanilino)-2′-[(2R)-2-methyl-3-{[(5R)-5-methyl-5,6,7,8-tetrahydroquinolin-4-yl]oxy}propyl]-6′-(1-methyl-1H-pyrrol-2-yl)-2′,3′-dihydrospiro[cyclohexane-1,1′-indene]-4-carboxylic acid], the Ki in test [2] was 0.154 nM. The IC50 in test [3] was 153 nM.
